{
  "source": "paper PMC7206119",
  "about": "“RIP1 inhibition blocks inflammatory diseases but not tumor growth or metastases” (Cell Death and Differentiation, 2019)",
  "test_in_all_cases": "biochemical",
  "set-up_in_all_cases": "DiscoverX kinase panel, active-site competition binding (KINOMEscan type), percent of control at one concentration",
  "details_in_all_cases": "competition binding, percent of control",
  "key": {"[1]": {"biological_target": "T1, ABL1(T315I)-nonphosphorylated (Homo sapiens, UniProt P00519, T315I)", "T1 construct": "nonphosphorylated"}, "ACVR1": {"biological_target": "ACVR1 (Homo sapiens, UniProt Q04771)"}, "ASK2": {"biological_target": "T2, ASK2 (Homo sapiens, UniProt O95382)", "T2 construct": "gene MAP3K6"}, "AURKC": {"biological_target": "AURKC (Homo sapiens, UniProt Q9UQB9)"}, "CAMK2D": {"biological_target": "CAMK2D (Homo sapiens, UniProt Q13557)", "sequence (Q13557 whole entry)": "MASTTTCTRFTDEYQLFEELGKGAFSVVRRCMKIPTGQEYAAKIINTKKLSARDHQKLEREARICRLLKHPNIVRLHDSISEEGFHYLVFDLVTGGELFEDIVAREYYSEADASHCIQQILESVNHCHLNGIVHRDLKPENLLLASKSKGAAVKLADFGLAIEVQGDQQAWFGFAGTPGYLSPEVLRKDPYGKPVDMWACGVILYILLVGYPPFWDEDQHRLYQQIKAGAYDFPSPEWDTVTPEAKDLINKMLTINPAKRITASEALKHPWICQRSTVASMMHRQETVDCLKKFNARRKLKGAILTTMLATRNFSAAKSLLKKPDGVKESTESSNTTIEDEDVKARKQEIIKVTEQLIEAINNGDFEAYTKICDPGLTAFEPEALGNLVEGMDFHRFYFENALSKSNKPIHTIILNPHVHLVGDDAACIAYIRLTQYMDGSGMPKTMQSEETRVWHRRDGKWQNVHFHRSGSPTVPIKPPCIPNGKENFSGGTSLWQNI"}, "CSNK1E": {"biological_target": "CSNK1E (Homo sapiens, UniProt P49674)", "sequence (P49674 whole entry)": "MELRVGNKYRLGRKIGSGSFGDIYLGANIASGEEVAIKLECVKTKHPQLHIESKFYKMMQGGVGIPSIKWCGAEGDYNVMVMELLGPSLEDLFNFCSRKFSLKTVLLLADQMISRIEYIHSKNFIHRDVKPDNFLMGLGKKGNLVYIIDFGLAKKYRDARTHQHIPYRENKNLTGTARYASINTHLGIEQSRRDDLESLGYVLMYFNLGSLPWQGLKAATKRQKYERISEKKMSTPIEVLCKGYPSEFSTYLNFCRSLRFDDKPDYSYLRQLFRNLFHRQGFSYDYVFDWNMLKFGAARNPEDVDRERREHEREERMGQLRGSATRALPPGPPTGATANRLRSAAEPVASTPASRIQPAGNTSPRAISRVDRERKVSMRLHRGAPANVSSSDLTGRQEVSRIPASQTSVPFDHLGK"}, "EGFR(E746-A750del)": {"biological_target": "EGFR(E746-A750del) (Homo sapiens, UniProt P00533, DEL746-750)"}, "EPHA4": {"biological_target": "EPHA4 (Homo sapiens, UniProt P54764)", "sequence (P54764 whole entry)": "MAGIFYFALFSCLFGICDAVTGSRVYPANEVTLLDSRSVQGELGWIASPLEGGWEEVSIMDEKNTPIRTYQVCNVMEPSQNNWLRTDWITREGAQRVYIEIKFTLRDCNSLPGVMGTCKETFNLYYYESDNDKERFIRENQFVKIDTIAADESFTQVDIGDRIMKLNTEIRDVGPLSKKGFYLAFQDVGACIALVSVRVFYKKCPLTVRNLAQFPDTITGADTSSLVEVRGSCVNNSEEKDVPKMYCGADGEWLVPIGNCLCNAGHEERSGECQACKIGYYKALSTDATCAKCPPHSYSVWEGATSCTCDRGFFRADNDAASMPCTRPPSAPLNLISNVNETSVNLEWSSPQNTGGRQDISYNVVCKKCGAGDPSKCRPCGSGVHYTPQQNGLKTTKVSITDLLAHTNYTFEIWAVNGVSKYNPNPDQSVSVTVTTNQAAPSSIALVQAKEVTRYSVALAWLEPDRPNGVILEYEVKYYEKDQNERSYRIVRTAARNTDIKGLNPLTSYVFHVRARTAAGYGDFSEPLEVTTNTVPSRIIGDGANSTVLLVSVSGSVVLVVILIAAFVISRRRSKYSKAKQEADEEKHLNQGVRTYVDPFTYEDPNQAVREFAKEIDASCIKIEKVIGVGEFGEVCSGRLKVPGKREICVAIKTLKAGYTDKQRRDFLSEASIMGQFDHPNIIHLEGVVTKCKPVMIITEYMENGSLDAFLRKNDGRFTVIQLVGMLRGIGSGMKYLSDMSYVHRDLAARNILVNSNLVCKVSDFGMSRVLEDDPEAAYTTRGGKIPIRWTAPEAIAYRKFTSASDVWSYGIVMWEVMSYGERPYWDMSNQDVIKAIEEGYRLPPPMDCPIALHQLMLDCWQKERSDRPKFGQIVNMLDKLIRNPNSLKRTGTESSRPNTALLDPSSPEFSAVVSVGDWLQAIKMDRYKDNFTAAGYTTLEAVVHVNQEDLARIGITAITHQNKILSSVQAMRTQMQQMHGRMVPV"}, "EPHB6": {"biological_target": "EPHB6 (Homo sapiens, UniProt O15197)", "sequence (O15197 whole entry)": "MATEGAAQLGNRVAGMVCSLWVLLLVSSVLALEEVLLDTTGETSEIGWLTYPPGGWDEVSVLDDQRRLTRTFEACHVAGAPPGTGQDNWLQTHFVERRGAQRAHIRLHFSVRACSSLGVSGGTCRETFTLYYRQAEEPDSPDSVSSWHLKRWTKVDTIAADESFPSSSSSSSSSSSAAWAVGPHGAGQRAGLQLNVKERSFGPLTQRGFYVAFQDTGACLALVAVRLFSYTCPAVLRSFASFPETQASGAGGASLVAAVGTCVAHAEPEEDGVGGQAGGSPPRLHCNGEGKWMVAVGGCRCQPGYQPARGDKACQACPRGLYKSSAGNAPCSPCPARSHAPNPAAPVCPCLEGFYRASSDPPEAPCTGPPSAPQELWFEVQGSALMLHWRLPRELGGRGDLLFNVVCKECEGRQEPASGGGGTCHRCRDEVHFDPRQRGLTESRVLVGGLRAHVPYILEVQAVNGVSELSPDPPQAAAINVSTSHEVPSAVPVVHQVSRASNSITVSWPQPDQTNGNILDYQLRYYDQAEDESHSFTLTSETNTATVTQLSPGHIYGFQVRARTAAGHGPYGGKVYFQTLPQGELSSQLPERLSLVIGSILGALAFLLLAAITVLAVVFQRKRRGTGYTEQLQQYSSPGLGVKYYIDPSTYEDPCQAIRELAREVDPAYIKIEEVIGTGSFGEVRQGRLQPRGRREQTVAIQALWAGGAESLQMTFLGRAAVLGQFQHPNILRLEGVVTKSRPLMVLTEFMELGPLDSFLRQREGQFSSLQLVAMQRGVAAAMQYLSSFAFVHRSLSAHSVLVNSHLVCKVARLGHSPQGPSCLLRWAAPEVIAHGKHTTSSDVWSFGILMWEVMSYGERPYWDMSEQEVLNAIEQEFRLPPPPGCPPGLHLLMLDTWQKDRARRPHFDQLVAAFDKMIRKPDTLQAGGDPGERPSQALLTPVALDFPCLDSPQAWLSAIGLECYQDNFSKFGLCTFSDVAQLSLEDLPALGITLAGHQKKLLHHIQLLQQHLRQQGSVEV"}, "ERBB3": {"biological_target": "ERBB3 (Homo sapiens, UniProt P21860)", "sequence (P21860 whole entry)": "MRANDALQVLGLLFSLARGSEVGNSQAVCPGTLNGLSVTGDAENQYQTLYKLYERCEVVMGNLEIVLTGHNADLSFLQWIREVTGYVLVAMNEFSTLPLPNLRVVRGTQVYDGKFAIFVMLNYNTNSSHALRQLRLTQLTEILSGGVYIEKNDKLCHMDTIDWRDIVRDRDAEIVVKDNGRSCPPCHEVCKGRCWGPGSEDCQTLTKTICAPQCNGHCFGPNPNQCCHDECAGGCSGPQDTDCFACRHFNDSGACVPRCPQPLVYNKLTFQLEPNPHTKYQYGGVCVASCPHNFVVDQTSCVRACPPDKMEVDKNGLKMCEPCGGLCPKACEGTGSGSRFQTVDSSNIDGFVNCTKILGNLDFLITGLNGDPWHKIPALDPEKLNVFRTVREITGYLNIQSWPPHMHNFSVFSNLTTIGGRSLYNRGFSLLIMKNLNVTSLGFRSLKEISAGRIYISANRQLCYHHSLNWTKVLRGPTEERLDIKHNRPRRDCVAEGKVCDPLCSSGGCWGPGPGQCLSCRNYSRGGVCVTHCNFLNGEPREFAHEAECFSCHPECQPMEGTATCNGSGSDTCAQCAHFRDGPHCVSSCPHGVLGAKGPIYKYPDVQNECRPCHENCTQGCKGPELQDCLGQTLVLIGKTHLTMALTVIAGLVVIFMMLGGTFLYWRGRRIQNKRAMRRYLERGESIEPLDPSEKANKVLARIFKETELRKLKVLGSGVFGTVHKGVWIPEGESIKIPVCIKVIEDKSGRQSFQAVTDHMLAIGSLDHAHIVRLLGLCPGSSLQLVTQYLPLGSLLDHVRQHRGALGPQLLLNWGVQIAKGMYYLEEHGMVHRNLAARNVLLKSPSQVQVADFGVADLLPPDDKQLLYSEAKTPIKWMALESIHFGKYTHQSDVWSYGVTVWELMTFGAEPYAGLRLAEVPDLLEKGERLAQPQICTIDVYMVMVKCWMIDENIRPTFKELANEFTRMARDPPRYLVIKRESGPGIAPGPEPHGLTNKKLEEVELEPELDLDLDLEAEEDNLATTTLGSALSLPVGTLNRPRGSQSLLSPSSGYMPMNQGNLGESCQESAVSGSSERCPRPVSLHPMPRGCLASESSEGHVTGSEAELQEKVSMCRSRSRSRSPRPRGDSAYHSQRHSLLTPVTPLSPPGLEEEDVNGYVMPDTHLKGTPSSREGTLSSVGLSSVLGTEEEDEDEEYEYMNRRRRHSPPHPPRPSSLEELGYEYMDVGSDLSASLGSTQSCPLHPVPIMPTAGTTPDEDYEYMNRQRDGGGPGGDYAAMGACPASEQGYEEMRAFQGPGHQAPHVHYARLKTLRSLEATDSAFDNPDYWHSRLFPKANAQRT"}, "FLT3(D835H)": {"biological_target": "FLT3(D835H) (Homo sapiens, UniProt P36888, D835H)"}, "FLT3(ITD,F691L)": {"biological_target": "FLT3(ITD,F691L) (Homo sapiens, UniProt P36888, F691L/ITD)"}, "FYN": {"biological_target": "FYN (Homo sapiens, UniProt P06241)"}, "HIPK4": {"biological_target": "HIPK4 (Homo sapiens, UniProt Q8NE63)"}, "[2]": {"biological_target": "T3, JAK2(JH1domain-catalytic) (Homo sapiens, UniProt O60674)", "T3 construct": "JH1domain-catalytic"}, "MEK1": {"biological_target": "T4, MEK1 (Homo sapiens, UniProt Q02750)", "T4 construct": "gene MAP2K1"}, "MYLK": {"biological_target": "MYLK (Homo sapiens, UniProt Q15746)"}, "RET(V804L)": {"biological_target": "RET(V804L) (Homo sapiens, UniProt P07949, V804L)"}, "RET(V804M)": {"biological_target": "RET(V804M) (Homo sapiens, UniProt P07949, V804M)"}, "TGFBR2": {"biological_target": "TGFBR2 (Homo sapiens, UniProt P37173)"}, "TNNI3K": {"biological_target": "TNNI3K (Homo sapiens, UniProt Q59H18)", "sequence (Q59H18 whole entry)": "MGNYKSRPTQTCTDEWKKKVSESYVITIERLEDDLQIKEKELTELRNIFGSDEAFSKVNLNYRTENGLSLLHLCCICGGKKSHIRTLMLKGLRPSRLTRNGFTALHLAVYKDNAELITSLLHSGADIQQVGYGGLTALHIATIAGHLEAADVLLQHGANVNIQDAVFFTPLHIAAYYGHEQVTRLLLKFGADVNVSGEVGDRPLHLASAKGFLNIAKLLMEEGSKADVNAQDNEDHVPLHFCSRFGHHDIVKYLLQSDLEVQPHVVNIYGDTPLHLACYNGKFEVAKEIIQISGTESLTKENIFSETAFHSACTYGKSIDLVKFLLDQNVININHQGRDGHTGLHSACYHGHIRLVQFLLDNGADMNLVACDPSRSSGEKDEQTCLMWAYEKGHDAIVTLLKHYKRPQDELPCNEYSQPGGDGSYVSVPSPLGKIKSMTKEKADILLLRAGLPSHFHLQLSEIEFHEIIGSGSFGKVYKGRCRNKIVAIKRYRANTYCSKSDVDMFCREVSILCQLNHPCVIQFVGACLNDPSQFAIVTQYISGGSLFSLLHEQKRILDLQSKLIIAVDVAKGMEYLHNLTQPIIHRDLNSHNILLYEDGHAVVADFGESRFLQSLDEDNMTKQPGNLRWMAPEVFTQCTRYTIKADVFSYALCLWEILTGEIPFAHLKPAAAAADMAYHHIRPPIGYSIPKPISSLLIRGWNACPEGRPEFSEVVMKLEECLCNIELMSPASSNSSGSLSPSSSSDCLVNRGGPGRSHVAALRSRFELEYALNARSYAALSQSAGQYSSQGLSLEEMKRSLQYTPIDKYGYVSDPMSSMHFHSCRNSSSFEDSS"}},
  "data": [
    {"smiles": "COc1cc2c(cn1)N(C)C(=O)[C@@H](NC(=O)c1nc3n(n1)[C@H](c1ccccc1)CC3)CC2", "note": "[GNE684, (S)-N-((S)-7-methoxy-1-methyl-2-oxo-2,3,4,5-tetrahydro-1H-pyrido[3,4-b]azepin-3-yl)-5-phenyl-6,7-dihydro-5H-pyrrolo[1,2-b][1,2,4]triazole-2-carboxamide]", "values": [
      {"measurement": "remaining binding at 10 µM", "setting": "[1]", "result": 73, "unit": "%"},
      {"measurement": "remaining binding at 10 µM", "setting": "ACVR1", "result": 100, "unit": "%"},
      {"measurement": "remaining binding at 10 µM", "setting": "ASK2", "result": 98, "unit": "%"},
      {"measurement": "remaining binding at 10 µM", "setting": "AURKC", "result": 93, "unit": "%"},
      {"measurement": "remaining binding at 10 µM", "setting": "CAMK2D", "result": 100, "unit": "%"},
      {"measurement": "remaining binding at 10 µM", "setting": "CSNK1E", "result": 74, "unit": "%"},
      {"measurement": "remaining binding at 10 µM", "setting": "EGFR(E746-A750del)", "result": 94, "unit": "%"},
      {"measurement": "remaining binding at 10 µM", "setting": "EPHA4", "result": 94, "unit": "%"},
      {"measurement": "remaining binding at 10 µM", "setting": "EPHB6", "result": 100, "unit": "%"},
      {"measurement": "remaining binding at 10 µM", "setting": "ERBB3", "result": 96, "unit": "%"},
      {"measurement": "remaining binding at 10 µM", "setting": "FLT3(D835H)", "result": 94, "unit": "%"},
      {"measurement": "remaining binding at 10 µM", "setting": "FLT3(ITD,F691L)", "result": 98, "unit": "%"},
      {"measurement": "remaining binding at 10 µM", "setting": "FYN", "result": 100, "unit": "%"},
      {"measurement": "remaining binding at 10 µM", "setting": "HIPK4", "result": 100, "unit": "%"},
      {"measurement": "remaining binding at 10 µM", "setting": "[2]", "result": 100, "unit": "%"},
      {"measurement": "remaining binding at 10 µM", "setting": "MEK1", "result": 91, "unit": "%"},
      {"measurement": "remaining binding at 10 µM", "setting": "MYLK", "result": 99, "unit": "%"},
      {"measurement": "remaining binding at 10 µM", "setting": "RET(V804L)", "result": 91, "unit": "%"},
      {"measurement": "remaining binding at 10 µM", "setting": "RET(V804M)", "result": 100, "unit": "%"},
      {"measurement": "remaining binding at 10 µM", "setting": "TGFBR2", "result": 94, "unit": "%"},
      {"measurement": "remaining binding at 10 µM", "setting": "TNNI3K", "result": 100, "unit": "%"}
    ]}
  ]
}
